Experiments:
Plasmodium falciparum [1] = assay: microbe, parasite or virus in culture
Description: Antimicrobial activity against Plasmodium falciparum trophozoites by microscopy treated during ring stage

Plasmodium vivax [2] = assay: Antimicrobial activity against Plasmodium vivax at the trophozoites by microscopy treated during ring stage; format: functional, organism-based
Plasmodium vivax [3] = assay: Antimicrobial activity against Plasmodium vivax at the ring stage measured within 30 hrs by microscopy; format: functional, organism-based
Plasmodium vivax [4] = assay: Antimicrobial activity against Plasmodium vivax trophozoites measured within 30 hrs by microscopy; format: functional, organism-based
Plasmodium vivax [5] = assay: Antimicrobial activity against Plasmodium vivax trophozoites measured after 30 hrs by microscopy; format: functional, organism-based
Plasmodium vivax [6] = assay: Antimicrobial activity against Plasmodium vivax at the ring stage by microscopy; format: functional, organism-based
Plasmodium vivax [7] = assay: Antimicrobial activity against Plasmodium vivax at the ring stage measured after 30 hrs by microscopy; format: functional, organism-based
Plasmodium vivax [8] = assay: Antimicrobial activity against Plasmodium vivax trophozoites by microscopy; format: functional, organism-based
Plasmodium falciparum [9] = assay: microbe, parasite or virus in culture; remark: listed apart in the source
Description: Antimicrobial activity against Plasmodium falciparum at the ring stage by microscopy

Plasmodium vivax [10] = assay: Antimicrobial activity against fast-growing synchronous Plasmodium vivax by microscopy
Plasmodium vivax [11] = assay: Antimicrobial activity against slow-growing synchronous Plasmodium vivax by microscopy

SMILES | IC50 (Plasmodium falciparum [1]) [nM] | IC50 (Plasmodium vivax [2]) [nM] | IC50 (Plasmodium vivax [3]) [nM] | IC50 (Plasmodium vivax [4]) [nM] | IC50 (Plasmodium vivax [5]) [nM] | IC50 (Plasmodium vivax [6]) [nM] | IC50 (Plasmodium vivax [7]) [nM] | IC50 (Plasmodium vivax [8]) [nM] | IC50 (Plasmodium falciparum [9]) [nM] | IC50 (Plasmodium vivax [10]) [nM] | IC50 (Plasmodium vivax [11]) [nM]
CCN(CC)Cc1cc(Nc2ccnc3cc(Cl)ccc23)ccc1O | 8.2 | 24.2 | 23.4 | 18.9 | 16.5 | 10 | 7.85 | 22.1 | 15.2 |  | 
C[C@H]1[C@H](OC(=O)CCC(=O)O)O[C@@H]2O[C@@]3(C)CC[C@H]4[C@H](C)CC[C@@H]1[C@@]24OO3 [ARTESUNATE] |  |  | 1.39 | 1.6 | 1.2 | 0.86 | 0.83 | 1.61 |  |  | 
CCN(CC)CCCC(C)Nc1ccnc2cc(Cl)ccc12 (stereo not given) [CHLOROQUINE] |  | 2810 | 475 | 539 | 298 | 55.2 | 59.8 | 478 |  | 435 | 39.9
CCCCN(CCCC)CC(O)c1cc(Cl)cc2c1-c1ccc(Cl)cc1/C2=C/c1ccc(Cl)cc1 (stereo not given) [LUMEFANTRINE] |  |  | 24.8 | 14.6 | 32.9 |  | 37.6 |  |  |  | 
OC(c1cc(C(F)(F)F)nc2c(C(F)(F)F)cccc12)C1CCCCN1 (stereo not given) [MEFLOQUINE] | 4.6 | 12.5 | 22.2 | 17.4 | 7.27 | 6.39 | 7.26 | 17 |  |  | 
Clc1ccc2c(N3CCN(CCCN4CCN(c5ccnc6cc(Cl)ccc56)CC4)CC3)ccnc2c1 [PIPERAQUINE] |  |  | 31.2 | 22.9 | 29.1 |  | 14.6 |  |  |  | 
